# In patent US20070287726A1, “5-Substituted 1H-Pyrrolo [3,2-B] Pyridines” (Altana Pharma AG, priority 2004, published 2007):
# Assays:
# [1] = system: pentagastrin-stimulated acid secretion of the perfused rat stomach; experiment: Secretion-inhibiting action on the perfused rat stomach; type: in vivo; conditions: anesthetized CD rat
# From the text: In Table A which follows, the influence of the compounds of the formula 1 according to the invention on the pentagastrin-stimulated acid secretion of the perfused rat stomach after intraduodenal/intravenous administration in vivo is shown.
# The abdomen of anesthetized rats (CD rat, female, 200-250 g; 1.5 g/kg i.m. urethane) was opened after tracheotomy by a median upper abdominal incision and a PVC catheter was fixed transorally in the esophagus and another via the pylorus such that the ends of the tubes just projected into the gastric lumen. The catheter leading from the pylorus led outward into the right abdominal wall through a side opening.
# After thorough rinsing (about 50-100 ml), warm (37° C.) physiological NaCl solution was continuously passed through the stomach (0.5 ml/min, pH 6.8-6.9; Braun-Unita I). The pH (pH meter 632, glass electrode EA 147; φ=5 mm, Metrohm) and, by titration with a freshly prepared 0.01N NaOH solution to pH 7 (Dosimat 665 Metrohm), the secreted HCl were determined in the effluent in each case collected at an interval of 15 minutes.
# The gastric secretion was stimulated by continuous infusion of 1 μg/kg (=1.65 ml/h) of i.v. pentagastrin (left femoral vein) about 30 min after the end of the operation (i.e. after determination of 2 preliminary fractions). The substances to be tested were administered intraduodenally (substance 7 intravenously) in a 2.5 ml/kg liquid volume 60 min after the start of the continuous pentagastrin infusion.
# The body temperature of the animals was kept at a constant 37.8-38° C. by infrared irradiation and heat pads (automatic, stepless control by means of a rectal temperature sensor).
Structure (SMILES),melting point [°C],Inhibition of acid secretion (%) ([1]; dose 1 μmol/kg i.d.),further results
"CCc1cccc(C)c1CNc1cc(Cl)nc2cc(C)[nH]c12 [Example 1, (5-Chloro-2-methyl-1H-pyrrolo[3,2-b]pyridin-7-yl)-(2-ethyl-6-methyl-benzyl)-amine]",296,–,–
"CCOC(=O)c1cc(NCc2c(C)cccc2CC)c2[nH]c(C)cc2n1 [Example 2, Ethyl[7-(2-ethyl-6-methyl-benzylamino)-2-methyl-1H-pyrrolo[3,2-b]pyridine-5-carboxylate]]",274 to 275,–,–
"CCc1cccc(C)c1CNc1cc(C(=O)N(C)C)nc2c(Br)c(C)[nH]c12 [Example 5, 3-Bromo-7-(2-ethyl-6-methyl-benzylamino)-2-methyl-1H-pyrrolo[3,2-b]pyridine-5-carboxylic acid dimethylamide]",–,>30,–
"CCc1cccc(C)c1CNc1cc(C(=O)N(C)C)nc2c(CO)c(C)[nH]c12 [Example 6, 7-(2-Ethyl-6-methyl-benzylamino)-3-hydroxymethyl-2-methyl-1H-pyrrolo[3,2-b]pyridine-5-carboxylic acid dimethylamide]",–,>30,–
"CCc1cccc(C)c1CNc1cc(C(=O)N(C)C)nc2c(C)c(C)[nH]c12 [Example 7, 7-(2-Ethyl-6-methyl-benzylamino)-2,3-dimethyl-1H-pyrrolo[3,2-b]pyridine-5-carboxylic acid dimethylamide]",–,–,Inhibition of acid secretion (%) ([1]; dose 2 μmol/kg i.v.): >80%
"CCOC(=O)c1cc(NCc2c(C)cccc2C)c2[nH]c(C)cc2n1 [Example 9, Ethyl[7-(2,6-dimethyl-benzylamino)-2-methyl-1H-pyrrolo[3,2-b]pyridine-5-carboxylate]]",254,–,–
"Cc1cccc(C)c1CNc1cc(C(=O)N(C)C)nc2c(Br)c(C)[nH]c12 [Example 12, 3-Bromo-7-(2,6-dimethyl-benzylamino)-2-methyl-1H-pyrrolo[3,2-b]pyridine-5-carboxylic acid dimethylamide]",–,–,Inhibition of acid secretion (%) ([1]; dose 3 μmol/kg i.d.): >60%
"Cc1cccc(C)c1CNc1cc(C(=O)N(C)C)nc2c(C)c(C)[nH]c12 [Example 14, 7-(2,6-Dimethyl-benzylamino)-2,3-dimethyl-1H-pyrrolo[3,2-b]pyridine-5-carboxylic acid dimethylamide]",–,>50,–
"CCOC(=O)c1cc(NCc2c(C)cccc2C)c2[nH]c(C)c(CO)c2n1 [Example 19, Ethyl[7-(2,6-dimethyl-benzylamino)-3-hydroxymethyl-2-methyl-1H-pyrrolo[3,2-b]pyridine-5-carboxylate]]",256 to 259,–,–
